Laboratory results as given in ChEMBL document CHEMBL1201862, “PubChem BioAssay data set” (2004).
Activity calls are given as the source filed them.

Experiments:
[1] = target: T1, Zinc finger protein mex-5 (Caenorhabditis elegans, UniProt Q9XUB2); test: potency of MEX-5 RNA-binding blockers – biochemical, C. elegans, fluorescence polarization, dose response (AID 1960)
T1 sequence (Q9XUB2 whole entry): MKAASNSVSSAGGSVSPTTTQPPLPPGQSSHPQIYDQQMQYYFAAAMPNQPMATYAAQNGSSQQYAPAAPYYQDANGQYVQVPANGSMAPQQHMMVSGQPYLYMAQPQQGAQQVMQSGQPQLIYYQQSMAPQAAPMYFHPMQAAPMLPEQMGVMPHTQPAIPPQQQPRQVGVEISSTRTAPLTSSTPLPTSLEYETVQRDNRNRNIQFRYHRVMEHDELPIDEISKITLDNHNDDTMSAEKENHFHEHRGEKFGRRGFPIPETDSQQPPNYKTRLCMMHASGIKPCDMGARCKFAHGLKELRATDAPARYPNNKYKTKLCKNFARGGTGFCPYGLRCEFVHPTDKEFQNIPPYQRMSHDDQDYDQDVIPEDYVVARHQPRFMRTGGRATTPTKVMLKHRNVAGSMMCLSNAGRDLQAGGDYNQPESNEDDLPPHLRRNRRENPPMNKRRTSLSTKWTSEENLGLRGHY

[2] = target: T2, RNA-binding protein pos-1 (Caenorhabditis elegans, UniProt G5EF15); test: disruptors of C. elegans POS-1 RNA interaction – biochemical, fluorescence polarization, dose response (AID 1964);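 also: purified POS-1 fused to maltose binding protein made in E. coli; potency of compounds blocking POS-1 binding to fluorescent RNA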
T2 sequence (G5EF15 whole entry): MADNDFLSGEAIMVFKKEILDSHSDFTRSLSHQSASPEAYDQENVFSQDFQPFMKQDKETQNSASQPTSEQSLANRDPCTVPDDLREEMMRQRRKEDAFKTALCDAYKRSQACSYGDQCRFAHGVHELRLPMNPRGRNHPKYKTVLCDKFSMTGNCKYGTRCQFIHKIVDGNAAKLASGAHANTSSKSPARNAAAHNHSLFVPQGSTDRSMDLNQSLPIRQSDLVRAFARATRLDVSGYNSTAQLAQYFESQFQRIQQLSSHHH

[3] = target: T3, Short transient receptor potential channel 4 (Mus musculus, UniProt Q9QUQ5); test: calcium entry via TRPC4 opening agents – cell-based, HEK293 TRPC4/mu-opioid, Fluo-4 calcium, dose response (AID 434937); type: functional
T3 sequence (Q9QUQ5 whole entry): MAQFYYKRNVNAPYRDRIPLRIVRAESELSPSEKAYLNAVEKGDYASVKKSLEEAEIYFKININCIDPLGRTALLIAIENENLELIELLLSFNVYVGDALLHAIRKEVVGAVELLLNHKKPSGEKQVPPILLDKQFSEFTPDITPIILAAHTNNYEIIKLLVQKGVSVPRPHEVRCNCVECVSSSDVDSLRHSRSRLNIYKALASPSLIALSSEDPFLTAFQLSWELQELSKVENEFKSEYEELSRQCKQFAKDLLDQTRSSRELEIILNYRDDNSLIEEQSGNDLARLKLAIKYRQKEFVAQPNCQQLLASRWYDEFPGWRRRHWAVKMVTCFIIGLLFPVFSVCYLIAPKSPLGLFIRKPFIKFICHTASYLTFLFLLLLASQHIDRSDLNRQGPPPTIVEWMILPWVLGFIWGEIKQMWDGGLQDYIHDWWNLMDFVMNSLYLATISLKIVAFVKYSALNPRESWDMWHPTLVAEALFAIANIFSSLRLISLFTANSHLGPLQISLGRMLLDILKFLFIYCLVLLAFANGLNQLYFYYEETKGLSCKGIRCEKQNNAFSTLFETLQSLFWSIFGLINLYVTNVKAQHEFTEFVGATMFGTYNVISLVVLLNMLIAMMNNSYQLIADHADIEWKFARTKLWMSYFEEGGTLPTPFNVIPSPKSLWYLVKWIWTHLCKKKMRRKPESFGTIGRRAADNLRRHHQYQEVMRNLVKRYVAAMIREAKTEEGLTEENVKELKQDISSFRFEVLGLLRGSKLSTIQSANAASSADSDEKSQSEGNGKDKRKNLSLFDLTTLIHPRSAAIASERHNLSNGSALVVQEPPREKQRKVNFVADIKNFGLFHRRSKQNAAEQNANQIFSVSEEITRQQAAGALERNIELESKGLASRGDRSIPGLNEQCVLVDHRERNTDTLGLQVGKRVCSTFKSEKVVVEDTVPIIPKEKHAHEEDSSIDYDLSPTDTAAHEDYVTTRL

[4] = target: Large T antigen (Simian virus 40, UniProt P03070); type: functional, Betapolyomavirus macacae;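 also: Confirmatory-stage PubChem screen for compounds that inhibit SV40 T antigen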
Large T antigen, sequence (P03070 whole entry): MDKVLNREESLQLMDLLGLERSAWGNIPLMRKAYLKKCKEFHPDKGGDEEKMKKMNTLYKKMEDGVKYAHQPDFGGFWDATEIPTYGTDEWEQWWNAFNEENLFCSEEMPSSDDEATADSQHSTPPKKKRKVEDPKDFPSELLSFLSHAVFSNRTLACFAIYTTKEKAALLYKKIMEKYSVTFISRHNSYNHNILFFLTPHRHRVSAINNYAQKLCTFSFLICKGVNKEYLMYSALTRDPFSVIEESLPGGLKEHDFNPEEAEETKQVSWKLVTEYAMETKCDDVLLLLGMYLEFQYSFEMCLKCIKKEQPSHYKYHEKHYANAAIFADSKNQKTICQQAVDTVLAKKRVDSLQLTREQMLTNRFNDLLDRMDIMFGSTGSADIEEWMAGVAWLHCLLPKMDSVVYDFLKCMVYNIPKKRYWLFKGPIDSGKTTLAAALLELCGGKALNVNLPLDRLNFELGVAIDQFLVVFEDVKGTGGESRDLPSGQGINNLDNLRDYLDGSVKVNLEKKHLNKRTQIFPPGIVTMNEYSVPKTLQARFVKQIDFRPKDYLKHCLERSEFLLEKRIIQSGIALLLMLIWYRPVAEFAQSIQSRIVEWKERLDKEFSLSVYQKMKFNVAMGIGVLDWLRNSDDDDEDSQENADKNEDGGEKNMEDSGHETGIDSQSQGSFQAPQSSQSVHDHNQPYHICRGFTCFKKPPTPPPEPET

[5] = target: Induced myeloid leukemia cell differentiation protein Mcl-1 (Homo sapiens, UniProt Q07820); type: functional
Induced myeloid leukemia cell differentiation protein Mcl-1, sequence (Q07820 whole entry): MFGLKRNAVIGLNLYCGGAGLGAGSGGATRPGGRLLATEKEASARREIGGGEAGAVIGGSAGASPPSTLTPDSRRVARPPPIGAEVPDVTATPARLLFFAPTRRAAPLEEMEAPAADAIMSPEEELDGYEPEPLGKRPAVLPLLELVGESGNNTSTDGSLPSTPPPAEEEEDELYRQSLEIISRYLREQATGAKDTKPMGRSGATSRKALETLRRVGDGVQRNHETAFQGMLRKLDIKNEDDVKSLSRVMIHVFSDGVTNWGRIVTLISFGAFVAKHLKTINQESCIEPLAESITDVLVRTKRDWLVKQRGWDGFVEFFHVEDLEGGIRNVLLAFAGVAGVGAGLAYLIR

[6] = NIH3T3 cell viability loss – ATP luminescence, mouse fibroblasts, counter-screen, dose response (AID 2010); type: functional, cell-based;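 also: cells exposed to compound for about 90 hours before reading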
[7] = Trypanosoma cruzi growth suppression in host cells – NIH3T3 host cells, beta-gal luminescence, confirmation (AID 2044); type: functional, cell-based;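 also: intracellular parasites grown in NIH/3T3 mouse fibroblasts as host cells; luminescent beta-galactosidase reporter signal from transgenic T. cruzi replicating inside host cells; inhibitors lower the luminescence signal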
[8] = target: T4, Polyadenylate-binding protein 1 (Homo sapiens, UniProt P11940); test: MLLE binding blockers, Cy5 peptide tracer – biochemical, fluorescence polarization, Cy5-PAM2 peptide, secondary, miRNA deadenylation inhibitor project, dose response (AID 602260); type: functional; details: read-out: IC50_Mean
T4 sequence (P11940 whole entry, the tested form may be a part): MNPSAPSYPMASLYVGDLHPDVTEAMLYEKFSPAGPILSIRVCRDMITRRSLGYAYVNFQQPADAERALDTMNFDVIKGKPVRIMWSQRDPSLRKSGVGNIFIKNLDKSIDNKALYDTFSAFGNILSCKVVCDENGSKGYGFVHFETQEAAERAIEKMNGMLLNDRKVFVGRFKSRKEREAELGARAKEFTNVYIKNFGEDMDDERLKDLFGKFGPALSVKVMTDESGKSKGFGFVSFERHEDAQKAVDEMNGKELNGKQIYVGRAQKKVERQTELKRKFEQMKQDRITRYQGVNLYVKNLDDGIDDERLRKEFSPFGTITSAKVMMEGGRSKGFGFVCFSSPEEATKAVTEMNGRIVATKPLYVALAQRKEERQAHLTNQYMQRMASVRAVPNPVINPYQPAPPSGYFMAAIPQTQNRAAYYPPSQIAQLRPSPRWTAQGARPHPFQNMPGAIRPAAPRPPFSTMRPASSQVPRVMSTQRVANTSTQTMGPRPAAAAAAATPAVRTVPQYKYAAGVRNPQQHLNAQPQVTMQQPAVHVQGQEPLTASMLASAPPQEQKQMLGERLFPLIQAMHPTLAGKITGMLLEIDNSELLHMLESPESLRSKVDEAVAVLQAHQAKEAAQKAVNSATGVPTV

[9] = target: T4, Polyadenylate-binding protein 1; test: MLLE domain peptide-binding blockers, IC50 – biochemical, fluorescence polarization, FITC-PAM2 peptide, dose response (AID 602259); type: functional; details: read-out: IC50_Mean
[10] = target: T5, Corticotropin-releasing factor receptor 2/Corticotropin-releasing factor-binding protein (Homo sapiens, UniProt P24387+Q13324); test: activators of CRF receptor 2 with binding protein – uHTS hits, confirmation (AID 602473); type: functional; details: read-out: EC50_Mean
T5 sequence (Q13324 whole entry): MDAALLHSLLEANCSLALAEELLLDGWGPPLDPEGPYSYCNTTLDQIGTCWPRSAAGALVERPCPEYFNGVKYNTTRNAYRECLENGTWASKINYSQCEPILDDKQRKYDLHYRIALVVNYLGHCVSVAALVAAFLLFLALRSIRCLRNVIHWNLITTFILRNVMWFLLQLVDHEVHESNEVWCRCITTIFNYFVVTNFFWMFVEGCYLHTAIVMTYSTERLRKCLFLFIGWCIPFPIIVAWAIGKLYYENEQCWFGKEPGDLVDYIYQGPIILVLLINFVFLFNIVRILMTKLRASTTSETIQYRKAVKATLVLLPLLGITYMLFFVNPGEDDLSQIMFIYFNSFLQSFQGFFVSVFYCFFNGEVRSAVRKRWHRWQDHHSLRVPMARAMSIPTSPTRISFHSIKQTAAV
T5 sequence (P24387 whole entry): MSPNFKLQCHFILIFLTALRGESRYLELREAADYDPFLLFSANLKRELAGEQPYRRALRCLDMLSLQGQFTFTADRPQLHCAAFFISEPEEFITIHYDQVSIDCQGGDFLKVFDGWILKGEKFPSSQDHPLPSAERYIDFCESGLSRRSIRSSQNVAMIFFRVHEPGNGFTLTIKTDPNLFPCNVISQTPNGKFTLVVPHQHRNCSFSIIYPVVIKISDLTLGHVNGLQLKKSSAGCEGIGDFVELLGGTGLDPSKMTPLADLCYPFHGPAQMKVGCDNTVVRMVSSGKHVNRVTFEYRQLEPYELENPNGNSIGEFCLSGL

[11] = microbe, parasite or virus in culture; type: functional; details: Mycobacterium tuberculosis
[12] = fluconazole-exposed Candida albicans growth modulators – fluorescence, retest, confirmation (AID 2467); type: functional, cell-based
[13] = NIH-3T3 fibroblast cytotoxicity, dose response, cytotoxicity control, cell-based, fluorescence, Alamar Blue, secondary assay (AID 2327); type: functional;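 also: NIH-3T3 mouse fibroblasts cultured with fluconazole at 8 µg/mL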
[14] = target: FAD-linked sulfhydryl oxidase ALR (Homo sapiens, UniProt P55789); test: ALR-catalysed DTT oxidation blockers – biochemical, H2O2 detection, luminescence, cherry-pick, dose response (AID 493248)
FAD-linked sulfhydryl oxidase ALR, sequence (P55789 whole entry): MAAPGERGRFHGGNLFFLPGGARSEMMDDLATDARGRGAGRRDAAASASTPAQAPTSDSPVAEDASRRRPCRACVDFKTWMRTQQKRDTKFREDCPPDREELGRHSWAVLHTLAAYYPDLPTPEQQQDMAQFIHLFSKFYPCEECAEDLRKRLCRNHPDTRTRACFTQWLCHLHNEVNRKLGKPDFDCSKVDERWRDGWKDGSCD

[15] = system: INS1; test: INS-1E survival protection against cytokine death – cell-based, luminescence, retest, dose response (AID 449756); type: functional; details: Rattus norvegicus;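 also: cell death triggered by IL-1 beta plus TNF-alpha plus IFN-gamma mixture; protective hits raise ATP signal compared with cytokine alone wells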
[16] = intracellular Trypanosoma cruzi inhibitors in host cells – cell-based, plate reader, cherry-pick samples, set 3, dose response (AID 651818); type: functional;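 also: compounds incubated with infected cells for about four days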
[17] = viability of PTEN-deleted HCT116 cells – cell-based, HCT116 PTEN knockout, dose response (AID 1047); type: functional;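 also: HCT116 colon tumor cells with PTEN knocked out; cells exposed to compound for 60 hours before readout; potency for loss of cell viability measured by luminescence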
[18] = viability of HCT116 lacking mutant beta-catenin – cell-based, human colon tumor, dose response (AID 1045); type: functional;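 also: HCT116 colon tumor cells with beta catenin knocked out; cells exposed to compound for 60 hours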

Cn1ncc2c(NNC(=O)c3ccc(O)cc3)ncnc21
EC50 [1]: 6.35 µM (active) | EC50 [2]: 39.5 µM (active)

COc1ccccc1N=C(S)NNC(=O)c1cc(C)n(C)n1
EC50 [1]: 58.4 µM (active) | EC50 [2]: 50.3 µM (active)

Cc1cccc(Oc2nc(-c3ccccn3)nc3ccccc23)c1
EC50 [1]: 173 µM (active) | EC50 [2]: > 300 µM (not active)

CC1CN(C2CC(C)(C)NC(C)(C)C2)CCC1=O (stereo not drawn)
EC50 [1]: > 300 µM (not active) | EC50 [2]: > 300 µM (not active)

CCCN(CCC)CCCNC(=O)C1CCN(S(=O)(=O)c2cccc3nsnc23)CC1
EC50 [3]: 0.133 µM (active)

COC(=O)CSc1nnc(CNc2ccc(OC)cc2)n1C
IC50 [4]: 45.8 µM (active)

COC(=O)C1CCN(Cc2cn(-c3ccccc3)nc2-c2ccc3c(c2)OCO3)CC1
EC50 [3]: 1.88 µM (active)

C=CCc1c(C)nc(SCCC)nc1O
IC50 [5]: 9.1 µM (not active)

Cc1ccc(C)c(OCCCCCn2ccnc2)c1
EC50 [6]: 4.76 µM (active) | EC50 [3]: 3.35 µM (active) | EC50 [7]: 0.505 µM (active)

Cc1ccc(NC(S)=Nc2ccccn2)cc1C
IC50 [8]: > 66 µM (inactive) | IC50 [9]: > 66 µM (inactive)

CCOC(=O)c1c(-c2ccc(C)cc2)csc1NC(=O)/C(C#N)=C/c1ccc(O)c(OC)c1
IC50 [5]: > 54 µM (active) | EC50 [10]: 2.87 µM (active)

O=C(CSc1ccsc1[N+](=O)[O-])N1CCN(c2ccc(Cl)cc2)CC1
IC50 [5]: 5.8 µM (active)

O=[N+]([O-])c1cc(-c2ccc([As](=O)(O)O)cc2)ccc1[As](=O)(O)O
EC50 [1]: 18 µM (active) | EC50 [2]: 22.8 µM (inconclusive)

O=C(Nc1ccc(OC(F)(F)F)cc1)c1ccc2c(c1)no[n+]2[O-]
CC50 [11]: 20.6 µM (active)

Cc1cccc(N(C)C(=O)CCS(=O)(=O)c2cc3c(cc2Cl)NC(=O)CO3)c1
IC50 [8]: > 66 µM (inactive) | IC50 [9]: > 66 µM (inactive)

CC1CC(C)CN(CCCNS(=O)(=O)c2cc(Br)cc3c2N(C(=O)C2CC2)CC3)C1 (stereo not drawn)
EC50 [3]: 0.0267 µM (active)

O=C(/C=C/c1ccco1)Nc1cccc(-c2nc3ccccc3[nH]2)c1
CC50 [11]: 30.8 µM (active) | EC50 [12]: 1.86 µM (active) | EC50 [13]: > 150 µM (inactive)

COc1ccc(N2CCN(Cc3nc4ccccc4n3C)CC2)cc1
EC50 [3]: 6.68 µM (active) | AC50 [14]: 8.25 µM (active)

COc1ccc(-c2c(-c3ccc(O)cc3O)n[nH]c2C)cc1OC
IC50 [4]: 33.6 µM (active)

CC1(C)CC(=O)C2=C(C1)OC(N)=C(C#N)C2c1ccc2c(c1)OCO2 (stereo not drawn)
EC50 [1]: > 300 µM (not active) | EC50 [2]: > 300 µM (not active)

CC(C)c1ccc(O)c(NC(=S)NC(=O)CCc2ccccc2)c1
IC50 [8]: > 66 µM (inactive) | IC50 [9]: > 66 µM (inactive)

Cc1cc(-c2ccccc2)cc(C)[n+]1Cc1ccccc1.[O-][Cl+3]([O-])([O-])[O-]
EC50 [3]: 1.88 µM (active) | AC50 [15]: 0.719 µM (active)

COc1ccc(/C(C)=N\NC(=O)CSc2nnc(C)s2)cc1
IC50 [8]: > 66 µM (inactive) | IC50 [9]: > 66 µM (inactive)

Cc1noc(C)c1S(=O)(=O)Nc1cccc2c1O[C@H](CN(C)Cc1ccc(C(=O)Nc3ccccc3N)cc1)[C@H](C)CN([C@H](C)CO)C2=O
AC50 [16]: 3.53 µM (active)

C[C@H](CO)N1C[C@H](C)[C@@H](CN(C)Cc2ccc(-c3ccccc3)cc2)Oc2c(NC(=O)CCCCCC(=O)Nc3ccccc3N)cccc2C1=O
AC50 [16]: 1.6 µM (active)

C[C@H]1CN([C@@H](C)CO)C(=O)c2cccc(NS(=O)(=O)c3ccc(Cl)cc3)c2O[C@H]1CN(C)Cc1ccc(C(=O)Nc2ccccc2N)cc1
AC50 [16]: 2.28 µM (active)

C[C@H](CO)N1C[C@H](C)[C@H](CN(C)S(=O)(=O)c2cccs2)Oc2c(NC(=O)c3nc4ccccc4s3)cccc2C1=O
AC50 [16]: 1.67 µM (active)

C[C@@H]1CN([C@H](C)CO)C(=O)c2cccc(NC(=O)CCCCCC(=O)Nc3ccccc3N)c2O[C@H]1CN(C)CC1CCCCC1
AC50 [16]: 3.18 µM (active)

Cc1ccc(S(=O)(=O)Nc2ccc3c(c2)C(=O)N([C@@H](C)CO)C[C@@H](C)[C@@H](CN(C)Cc2ccc(Cl)c(Cl)c2)O3)cc1
AC50 [16]: 3.36 µM (active)

C[C@H]1CN([C@@H](C)CO)C(=O)Cc2cc(N(C)C)ccc2O[C@@H]1CN(C)Cc1ccc(C(F)(F)F)cc1
AC50 [16]: 0.991 µM (active)

COc1ccc2[nH]c3c(=O)n(Cc4ccc(C(=O)N5CCCC5)cc4)c(=S)[nH]c3c2c1
IC50 [5]: 3.5 µM (not active)

O=[N+]([O-])c1cccc(N/N=C/c2cc([N+](=O)[O-])ccc2O)c1
IC50 [5]: < 0.4 µM (active)

CCOc1cc(/C=N/NC(=O)CCn2nnc3ccccc32)ccc1O
IC50 [4]: 10.4 µM (active)

CC(=O)OC[C@H]1O[C@@H](O[C@@H]2C[C@H]3C(C)(C)[C@H](OC(C)=O)CC[C@]3(C)[C@H]3CC[C@]45C[C@]4(CC[C@H]5[C@@H](C)C[C@@H](O)[C@H](O)C(C)(C)O)[C@@]32C)[C@H](O)[C@@H](O)[C@@H]1O [CUMINGIANOSIDE A]
CC50 [11]: 27.7 µM (active) | EC50 [17]: 8.19 µM (active) | EC50 [18]: 8.05 µM (active)
